According to the supplement of paper PMC10307832:

compound: O=C(Nc1cc(C(F)(F)F)cc(C(F)(F)F)c1)c1cc(Cl)ccc1O [IMD-0354] + Cc1nc(NC(=O)N2CCC[C@H]2C(N)=O)sc1-c1ccnc(C(C)(C)C(F)(F)F)c1 [Alpelisib] (partner 2 µM); assay: relative viability (nuclei count vs DMSO), 5 days (fraction); higher = more cells survive; details: first compound 0.04 µM
Method in brief: (§1)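 Cells from lung cancer lines were seeded into 1536-well plates and, one day later, dosed by pin tool. Treatments were either a single drug or a fixed dose of an anchor drug with five library-drug doses (not always all listed) in √10 steps. After 5 days, nuclei were stained in a one-step fixation (final 0.05% Triton X-100, 1% formaldehyde, 1 ug/ml Hoechst) and counted on 4× images, and relative viability is the treated-to-vehicle nuclei ratio, as the median of duplicate plates.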

Going from H3255 to COR-L23, the relative viability rises from 0.723 to 0.728.

Going from COR-L 105 to IA-LM, the relative viability falls from 1.06 to 0.806.

First: LOU-NH91
Second: HCC-44
The relative viability of the first is lower: 0.755 for the first, 0.857 for the second.

Compared with A549, NCI-H2009 is higher in relative viability: 0.776 for the first, 1.14 for the second.

First: NCI-H661
Second: SW 1573
The relative viability of the first is higher: 0.838 for the first, 0.768 for the second.

Compared with NCI-H1299, NCI-H2228 is lower in relative viability: 1.01 for the first, 0.686 for the second.

Compared with NCI-H1792, NCI-H2023 is lower in relative viability: 0.822 for the first, 0.696 for the second.

First: NCI-H1563
Second: SK-MES-1
The relative viability of the first is lower: 0.875 for the first, 0.976 for the second.

same assay, conditions: first compound 0.1265 µM

Going from NCI-H727 to EBC-1, the relative viability rises from 0.641 to 0.788.

Going from NCI-H1703 to NCI-H1993, the relative viability rises from 0.269 to 0.695.

Compared with SK-LU-1, NCI-H838 is higher in relative viability: 0.658 for the first, 1.06 for the second.

Going from LCLC-103H to NCI-H520, the relative viability falls from 0.998 to 0.948.

Compared with NCI-H2126, EMC-BAC-2 is higher in relative viability: 0.722 for the first, 0.766 for the second.

Compared with NCI-H2085, Calu-6 is higher in relative viability: 0.888 for the first, 0.909 for the second.

Going from HCC-366 to NCI-H1666, the relative viability rises from 0.727 to 0.961.

Compared with NCI-H596, NCI-H1395 is higher in relative viability: 0.458 for the first, 0.889 for the second.

Going from NCI-H2087 to LK-2, the relative viability falls from 0.938 to 0.711.

First: H3255
Second: COR-L23
The relative viability of the first is higher: 0.793 for the first, 0.776 for the second.

First: COR-L 105
Second: IA-LM
The relative viability of the first is higher: 0.76 for the first, 0.617 for the second.

Compared with LOU-NH91, HCC-44 is lower in relative viability: 0.729 for the first, 0.728 for the second.

Compared with A549, NCI-H2009 is higher in relative viability: 0.695 for the first, 1.03 for the second.

First: NCI-H661
Second: SW 1573
The relative viability of the first is lower: 0.772 for the first, 0.788 for the second.

Compared with NCI-H1299, NCI-H2228 is lower in relative viability: 1.02 for the first, 0.738 for the second.

First: NCI-H1792
Second: NCI-H2023
The relative viability of the first is lower: 0.506 for the first, 0.577 for the second.

Going from NCI-H1563 to SK-MES-1, the relative viability falls from 0.889 to 0.834.

same assay, conditions: first compound 0.4 µM

Going from NCI-H727 to EBC-1, the relative viability rises from 0.497 to 0.559.

Compared with NCI-H1703, NCI-H1993 is higher in relative viability: 0.282 for the first, 0.581 for the second.

Compared with SK-LU-1, NCI-H838 is lower in relative viability: 0.472 for the first, 0.445 for the second.

Going from LCLC-103H to NCI-H520, the relative viability falls from 0.839 to 0.381.

Going from NCI-H2126 to EMC-BAC-2, the relative viability falls from 0.682 to 0.448.

Going from NCI-H2085 to Calu-6, the relative viability falls from 0.764 to 0.672.

Going from HCC-366 to NCI-H1666, the relative viability rises from 0.148 to 0.966.

Compared with NCI-H596, NCI-H1395 is higher in relative viability: 0.466 for the first, 0.98 for the second.

First: NCI-H2087
Second: LK-2
The relative viability of the first is lower: 0.329 for the first, 0.647 for the second.

Going from H3255 to COR-L23, the relative viability falls from 0.46 to 0.427.

Going from COR-L 105 to IA-LM, the relative viability falls from 0.902 to 0.634.

Compared with LOU-NH91, HCC-44 is lower in relative viability: 0.541 for the first, 0.379 for the second.

Compared with A549, NCI-H2009 is higher in relative viability: 0.509 for the first, 0.929 for the second.

Going from NCI-H661 to SW 1573, the relative viability falls from 0.401 to 0.328.

Going from NCI-H1299 to NCI-H2228, the relative viability falls from 0.709 to 0.631.

Going from NCI-H1792 to NCI-H2023, the relative viability falls from 0.874 to 0.439.

Going from NCI-H1563 to SK-MES-1, the relative viability falls from 0.886 to 0.598.

same assay, conditions: first compound 1.265 µM

Going from NCI-H727 to EBC-1, the relative viability falls from 0.396 to 0.174.

Going from NCI-H1703 to NCI-H1993, the relative viability rises from 0.179 to 0.487.

Compared with SK-LU-1, NCI-H838 is higher in relative viability: 0.174 for the first, 0.615 for the second.

Compared with LCLC-103H, NCI-H520 is lower in relative viability: 0.815 for the first, 0.383 for the second.

Compared with NCI-H2126, EMC-BAC-2 is lower in relative viability: 0.714 for the first, 0.611 for the second.

First: NCI-H2085
Second: Calu-6
The relative viability of the first is higher: 0.492 for the first, 0.101 for the second.

Going from HCC-366 to NCI-H1666, the relative viability falls from 0.373 to 0.208.

First: NCI-H596
Second: NCI-H1395
The relative viability of the first is higher: 0.528 for the first, 0.465 for the second.

Compared with NCI-H2087, LK-2 is higher in relative viability: 0.136 for the first, 0.611 for the second.

Going from H3255 to COR-L23, the relative viability falls from 0.364 to 0.136.

Compared with COR-L 105, IA-LM is lower in relative viability: 0.604 for the first, 0.106 for the second.

Going from LOU-NH91 to HCC-44, the relative viability falls from 0.244 to 0.185.

Going from A549 to NCI-H2009, the relative viability rises from 0.0677 to 0.239.

Going from NCI-H661 to SW 1573, the relative viability falls from 0.345 to 0.202.

Going from NCI-H1299 to NCI-H2228, the relative viability falls from 0.276 to 0.263.

First: NCI-H1792
Second: NCI-H2023
The relative viability of the first is higher: 0.677 for the first, 0.312 for the second.

Going from NCI-H1563 to SK-MES-1, the relative viability falls from 0.726 to 0.283.

same assay, conditions: first compound 4 µM

First: NCI-H727
Second: EBC-1
The relative viability of the first is higher: 0.352 for the first, 0.227 for the second.

Compared with NCI-H1703, NCI-H1993 is higher in relative viability: 0.121 for the first, 0.514 for the second.

Compared with SK-LU-1, NCI-H838 is higher in relative viability: 0.215 for the first, 0.331 for the second.

Going from LCLC-103H to NCI-H520, the relative viability falls from 0.397 to 0.214.

First: NCI-H2126
Second: EMC-BAC-2
The relative viability of the first is higher: 0.263 for the first, 0.25 for the second.

First: NCI-H2085
Second: Calu-6
The relative viability of the first is higher: 0.269 for the first, 0.0892 for the second.

First: HCC-366
Second: NCI-H1666
The relative viability of the first is lower: 0.0309 for the first, 0.196 for the second.

Going from NCI-H596 to NCI-H1395, the relative viability falls from 0.326 to 0.324.

Going from NCI-H2087 to LK-2, the relative viability rises from 0.131 to 0.372.

Going from H3255 to COR-L23, the relative viability falls from 0.241 to 0.164.

First: COR-L 105
Second: IA-LM
The relative viability of the first is higher: 0.287 for the first, 0.178 for the second.

First: LOU-NH91
Second: HCC-44
The relative viability of the first is higher: 0.231 for the first, 0.134 for the second.

Compared with A549, NCI-H2009 is higher in relative viability: 0.0557 for the first, 0.127 for the second.

Compared with NCI-H661, SW 1573 is lower in relative viability: 0.248 for the first, 0.15 for the second.

First: NCI-H1299
Second: NCI-H2228
The relative viability of the first is higher: 0.194 for the first, 0.182 for the second.

Compared with NCI-H1792, NCI-H2023 is lower in relative viability: 0.336 for the first, 0.122 for the second.

Compared with NCI-H1563, SK-MES-1 is lower in relative viability: 0.399 for the first, 0.285 for the second.

compound: Cc1cnc(CNC(=O)c2c(=O)c3ccc(N4CCCN(C)CC4)nc3n3c2sc2ccccc23)cn1 [CX-5461] + Cc1cc(Nc2cc(N3CCN(C)CC3)nc(Sc3ccc(NC(=O)C4CC4)cc3)n2)n[nH]1 [Tozasertib] (partner 0.1 µM); assay: as above; details: first compound 0.01 µM
Method in brief: as §1

Going from NCI-H522 to NCI-H1623, the relative viability falls from 0.521 to 0.465.

For NCI-H727, the relative viability was 0.529.
